Source: PMC12121777 (PLOS One, 2025)
Converted amounts (≈) assume the structure as drawn. Read-outs that look alike come from different tables or passages of the source.

What was measured:
Test in all cases: microbe, parasite or virus in culture
Type in all cases: cell-based
Mtb Praha 131 = conditions: Mycobacterium tuberculosis, read-out: MIC Mtb Praha 131
Mtb Praha 4 = conditions: Mycobacterium tuberculosis, read-out: MIC Mtb Praha 4
Mtb 7357/1998 = conditions: Mycobacterium tuberculosis, read-out: MIC Mtb 7357/1998
Mtb 234/2005 = conditions: Mycobacterium tuberculosis, read-out: MIC Mtb 234/2005
Mtb 9449/2007 = conditions: Mycobacterium tuberculosis, read-out: MIC Mtb 9449/2007
Mtb Praha 1 = conditions: Mycobacterium tuberculosis, read-out: MIC Mtb Praha 1
Mtb 8666/2010 = conditions: Mycobacterium tuberculosis, read-out: MIC Mtb 8666/2010

SMILES	MIC (Mtb Praha 131; PRAHA131, 336 h) [µM]	MIC (Mtb Praha 131; PRAHA131, 504 h) [µM]	MIC (Mtb Praha 4; PRAHA4, 336 h) [µM]	MIC (Mtb Praha 4; PRAHA4, 504 h) [µM]	MIC (Mtb 7357/1998; 7357/1998, 336 h) [µM]	MIC (Mtb 7357/1998; 7357/1998, 504 h) [µM]	MIC (Mtb 234/2005; 234/2005, 336 h) [µM]	MIC (Mtb 234/2005; 234/2005, 504 h) [µM]	MIC (Mtb 9449/2007; 9449/2007, 336 h) [µM]	MIC (Mtb 9449/2007; 9449/2007, 504 h) [µM]	MIC (Mtb Praha 1; PRAHA1, 336 h) [µM]	MIC (Mtb Praha 1; PRAHA1, 504 h) [µM]	MIC (Mtb 8666/2010; 8666/2010, 336 h) [µM]	MIC (Mtb 8666/2010; 8666/2010, 504 h) [µM]
CCCCCCCCCCCCNc1nnc(-c2cc([N+](=O)[O-])cc([N+](=O)[O-])c2)o1 [Compound 5l, 5-(3,5-Dinitrophenyl)-N-dodecyl-1,3,4-oxadiazol-2-amine]	0.25 (≈ 0.105 µg/mL)	0.5 (≈ 0.21 µg/mL)	0.25 (≈ 0.105 µg/mL)	0.5 (≈ 0.21 µg/mL)	0.5 (≈ 0.21 µg/mL)	0.5 (≈ 0.21 µg/mL)	0.25 (≈ 0.105 µg/mL)	0.5 (≈ 0.21 µg/mL)	0.25 (≈ 0.105 µg/mL)	0.5 (≈ 0.21 µg/mL)	0.25 (≈ 0.105 µg/mL)	0.5 (≈ 0.21 µg/mL)	0.25 (≈ 0.105 µg/mL)	0.5 (≈ 0.21 µg/mL)
CCCCCCCNC(=O)NNC(=O)c1cc([N+](=O)[O-])cc([N+](=O)[O-])c1 [Compound 4g, 2-(3,5-Dinitrobenzoyl)-N-heptylhydrazine-1-carboxamide]	1 (≈ 0.367 µg/mL)	2 (≈ 0.735 µg/mL)	1 (≈ 0.367 µg/mL)	1 (≈ 0.367 µg/mL)	1 (≈ 0.367 µg/mL)	1 (≈ 0.367 µg/mL)	1 (≈ 0.367 µg/mL)	2 (≈ 0.735 µg/mL)	1 (≈ 0.367 µg/mL)	1 (≈ 0.367 µg/mL)	1 (≈ 0.367 µg/mL)	2 (≈ 0.735 µg/mL)	1 (≈ 0.367 µg/mL)	1 (≈ 0.367 µg/mL)
CCCCCCCNc1nnc(-c2cc([N+](=O)[O-])cc([N+](=O)[O-])c2)o1 [Compound 5g, 5-(3,5-Dinitrophenyl)-N-heptyl-1,3,4-oxadiazol-2-amine]	0.06 (≈ 0.021 µg/mL)	0.06 (≈ 0.021 µg/mL)	0.06 (≈ 0.021 µg/mL)	0.06 (≈ 0.021 µg/mL)	0.06 (≈ 0.021 µg/mL)	0.06 (≈ 0.021 µg/mL)	0.06 (≈ 0.021 µg/mL)	0.06 (≈ 0.021 µg/mL)	≤ 0.03	0.06 (≈ 0.021 µg/mL)	0.06 (≈ 0.021 µg/mL)	0.06 (≈ 0.021 µg/mL)	≤ 0.03	0.06 (≈ 0.021 µg/mL)
CCCCCCCCCCCNc1nnc(-c2cc([N+](=O)[O-])cc([N+](=O)[O-])c2)o1 [Compound 5k, 5-(3,5-Dinitrophenyl)-N-undecyl-1,3,4-oxadiazol-2-amine]	0.25 (≈ 0.101 µg/mL)	0.5 (≈ 0.203 µg/mL)	0.25 (≈ 0.101 µg/mL)	0.5 (≈ 0.203 µg/mL)	0.25 (≈ 0.101 µg/mL)	0.5 (≈ 0.203 µg/mL)	0.25 (≈ 0.101 µg/mL)	0.5 (≈ 0.203 µg/mL)	0.25 (≈ 0.101 µg/mL)	0.5 (≈ 0.203 µg/mL)	0.25 (≈ 0.101 µg/mL)	0.5 (≈ 0.203 µg/mL)	0.25 (≈ 0.101 µg/mL)	0.5 (≈ 0.203 µg/mL)
CCCCNc1nnc(-c2cc([N+](=O)[O-])cc([N+](=O)[O-])c2)o1 [Compound 5d, N-Butyl-5-(3,5-dinitrophenyl)-1,3,4-oxadiazol-2-amine]	0.5 (≈ 0.154 µg/mL)	1 (≈ 0.307 µg/mL)	0.5 (≈ 0.154 µg/mL)	1 (≈ 0.307 µg/mL)	0.5 (≈ 0.154 µg/mL)	1 (≈ 0.307 µg/mL)	0.5 (≈ 0.154 µg/mL)	1 (≈ 0.307 µg/mL)	0.5 (≈ 0.154 µg/mL)	0.5 (≈ 0.154 µg/mL)	1 (≈ 0.307 µg/mL)	1 (≈ 0.307 µg/mL)	0.5 (≈ 0.154 µg/mL)	0.5 (≈ 0.154 µg/mL)
CCCCCCCCCCCCNc1nnc(-c2cc([N+](=O)[O-])cc([N+](=O)[O-])c2)s1 [Compound 5s, 5-(3,5-Dinitrophenyl)-N-dodecyl-1,3,4-thiadiazol-2-amine]	1 (≈ 0.436 µg/mL)	1 (≈ 0.436 µg/mL)	1 (≈ 0.436 µg/mL)	1 (≈ 0.436 µg/mL)	0.5 (≈ 0.218 µg/mL)	1 (≈ 0.436 µg/mL)	0.5 (≈ 0.218 µg/mL)	1 (≈ 0.436 µg/mL)	1 (≈ 0.436 µg/mL)	2 (≈ 0.871 µg/mL)	1 (≈ 0.436 µg/mL)	1 (≈ 0.436 µg/mL)	0.5 (≈ 0.218 µg/mL)	1 (≈ 0.436 µg/mL)
CCCCCCCCNc1nnc(-c2cc([N+](=O)[O-])cc([N+](=O)[O-])c2)o1 [Compound 5h, 5-(3,5-Dinitrophenyl)-N-octyl-1,3,4-oxadiazol-2-amine]	0.125 (≈ 0.0454 µg/mL)	0.125 (≈ 0.0454 µg/mL)	0.125 (≈ 0.0454 µg/mL)	0.125 (≈ 0.0454 µg/mL)	0.125 (≈ 0.0454 µg/mL)	0.125 (≈ 0.0454 µg/mL)	0.125 (≈ 0.0454 µg/mL)	0.125 (≈ 0.0454 µg/mL)	0.06 (≈ 0.0218 µg/mL)	0.125 (≈ 0.0454 µg/mL)	0.125 (≈ 0.0454 µg/mL)	0.125 (≈ 0.0454 µg/mL)	0.06 (≈ 0.0218 µg/mL)	0.125 (≈ 0.0454 µg/mL)
CCCCCCCCCCCCCNc1nnc(-c2cc([N+](=O)[O-])cc([N+](=O)[O-])c2)o1 [Compound 5m, 5-(3,5-Dinitrophenyl)-N-tridecyl-1,3,4-oxadiazol-2-amine]	0.125 (≈ 0.0542 µg/mL)	0.125 (≈ 0.0542 µg/mL)	0.06 (≈ 0.026 µg/mL)	0.125 (≈ 0.0542 µg/mL)	0.25 (≈ 0.108 µg/mL)	0.25 (≈ 0.108 µg/mL)	0.125 (≈ 0.0542 µg/mL)	0.125 (≈ 0.0542 µg/mL)	0.06 (≈ 0.026 µg/mL)	0.125 (≈ 0.0542 µg/mL)	0.125 (≈ 0.0542 µg/mL)	0.125 (≈ 0.0542 µg/mL)	0.06 (≈ 0.026 µg/mL)	0.125 (≈ 0.0542 µg/mL)
